Assay results published in patent publication US9765075B2, “Substituted bridged urea analogs as sirtuin modulators” (GLAXOSMITHKLINE LLC, priority 2013, dated 2017).
Positions count from the first letter of the chain named. Where a name gives a salt, the structure may show the parent alone.

Assays:
Assay type in all cases: biochemical
full-length hSIRT1 E230K = molecular target: T1, full-length hSIRT1 E230K (Homo sapiens, UniProt Q96EB6, E230K); test: SIRT1 inhibition assay, OAcADPr mass spectrometry
T1 construct: His6 (C); made in house
T1 sequence (Q96EB6 1-747 E230K): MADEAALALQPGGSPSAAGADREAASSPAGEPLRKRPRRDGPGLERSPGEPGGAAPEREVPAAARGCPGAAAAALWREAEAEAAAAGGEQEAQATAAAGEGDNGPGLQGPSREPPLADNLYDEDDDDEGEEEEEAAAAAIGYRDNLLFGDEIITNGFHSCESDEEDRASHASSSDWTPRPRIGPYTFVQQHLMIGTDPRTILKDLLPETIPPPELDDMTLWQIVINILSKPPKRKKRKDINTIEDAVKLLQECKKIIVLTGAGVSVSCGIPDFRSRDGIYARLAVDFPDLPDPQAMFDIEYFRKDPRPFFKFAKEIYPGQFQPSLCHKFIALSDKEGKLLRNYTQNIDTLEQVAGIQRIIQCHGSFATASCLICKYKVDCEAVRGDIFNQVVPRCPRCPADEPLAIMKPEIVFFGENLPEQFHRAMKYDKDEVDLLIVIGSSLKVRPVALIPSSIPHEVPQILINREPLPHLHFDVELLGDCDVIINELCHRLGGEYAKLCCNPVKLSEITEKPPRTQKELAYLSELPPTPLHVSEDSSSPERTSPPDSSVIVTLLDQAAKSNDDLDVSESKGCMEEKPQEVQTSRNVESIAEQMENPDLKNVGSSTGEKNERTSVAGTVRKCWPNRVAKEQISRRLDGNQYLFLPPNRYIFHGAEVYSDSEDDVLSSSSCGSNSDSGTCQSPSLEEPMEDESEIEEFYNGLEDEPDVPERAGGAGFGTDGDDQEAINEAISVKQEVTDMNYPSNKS
Protocol: (§1) SIRT1 activation and inhibition assays were run in reaction buffer with 0.05% BSA at 25° C. and analyzed using the OAcADPr assay. Enzyme and compound were pre-incubated for 20 minutes before addition of substrates.

full-length hSIRT1 I223R = molecular target: T2, full-length hSIRT1 I223R (Homo sapiens, UniProt Q96EB6, I223R); test: SIRT1 inhibition assay, OAcADPr mass spectrometry
T2 construct: made in house
T2 sequence (Q96EB6 1-747 I223R): T1 sequence (Q96EB6 1-747 E230K) with I223R, K230E
Protocol: as §1

full-length hSIRT1 I223A = molecular target: T3, full-length hSIRT1 I223A (Homo sapiens, UniProt Q96EB6, I223A); test: SIRT1 activation dose-response, OAcADPr assay with Ac-p53(W5) substrate; details: for EC50: hSIRT1 I223A, activation dose-response, Ac-p53(W5) substrate
T3 construct: The following point mutants of full-length hSIRT1 were generated; His6 (C); made in house
T3 sequence (Q96EB6 1-747 I223A): T1 sequence (Q96EB6 1-747 E230K) with I223A, K230E
Protocol: SIRT1 activation and inhibition assays were run in reaction buffer with 0.05% BSA at 25° C. and analyzed using the OAcADPr assay. Enzyme and compound were pre-incubated for 20 minutes before addition of substrates. […] The dose-dependence of five compounds was tested and the fold-activation data were described by Eq. 1
[formula] where vx/v0 is the ratio of the reaction rate in the presence (vx) versus absence (v0) of activator (X), RVmax is the relative velocity at infinite activator concentration, EC50 is the concentration of activator required to produce one-half RVmax and b is the minimum value of vx/v0.

Row | SMILES | IC50 (full-length hSIRT1 E230K) | IC50 (full-length hSIRT1 I223R) | EC50 fold shift (mutant EC50/wild-type EC50) (full-length hSIRT1 I223A) | RVmax fold shift = (wild-type RVmax−1)/(mutant RVmax−1) (full-length hSIRT1 I223A) | EC50 (full-length hSIRT1 I223A)
1 | CCCC[C@H](NC(=O)[C@H](CC(C)C)NC(=O)[C@H](CCCCNC(=O)C(F)(F)F)NC(=O)[C@H](CCCCN)NC(=O)[C@H](Cc1c[nH]cn1)NC(=O)[C@H](CCCNC(=N)N)NC(C)=O)C(=O)N[C@@H](Cc1ccccc1)C(N)=O [TFA-p53 7-mer, Ac-RHK-K^TFA-L-Nle-F-NH2] | 1600 ± 300 nM | 660 ± 60 nM |  |  | 
2 | Cc1cnc2c(NC(=O)N3c4nc(-c5cccc(C(F)(F)F)c5)ccc4N4CC[C@H]3C4)cccc2n1 [Example 8] |  |  | 4.91 | 0.97 | 2360 nM
3 | O=C(Nc1ccccn1)N1c2nc(-c3cccc(C(F)(F)F)c3)ccc2N2CC[C@H]1C2 [Example 7] |  |  | 2.51 | 6.90 | 5510 nM
